According to patent publication US20100286152A1, “N-PHENYL HYDRAZIDES AS MODULATORS OF THE GHRELIN RECEPTOR” (Glaxo Group Limited, priority 2007, published 2010):

Key:
[1] = target: T1, Human GHS-R (ghrelin receptor) (Homo sapiens, UniProt Q92847); experiment: GHSR Agonist BACMAM FLIPR Assay (Method X or Y); type: cell-based; conditions: U2OS cells, maximum asymptote relative to that of the hGhrelin concentration response curve
T1 construct: The full-length gene was transferred into pCDN for expression analysis; expressed in transfected cells; host or cells: U2OS cells transduced with human GHSR BacMam virus
T1 sequence (Q92847 whole entry): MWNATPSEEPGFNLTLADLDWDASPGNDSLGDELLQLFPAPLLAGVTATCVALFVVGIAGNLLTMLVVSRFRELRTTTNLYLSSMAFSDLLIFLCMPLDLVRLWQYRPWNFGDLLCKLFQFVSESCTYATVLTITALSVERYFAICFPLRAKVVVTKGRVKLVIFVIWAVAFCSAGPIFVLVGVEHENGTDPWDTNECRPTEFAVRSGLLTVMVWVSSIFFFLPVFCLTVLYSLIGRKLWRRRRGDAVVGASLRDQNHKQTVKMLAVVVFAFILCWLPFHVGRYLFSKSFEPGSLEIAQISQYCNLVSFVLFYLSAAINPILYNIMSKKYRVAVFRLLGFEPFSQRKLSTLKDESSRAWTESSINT
Protocol: (§1) 24 h prior to assay U2OS cells at confluence 100% were harvested and spun down. The supernatant was removed and the cells resuspended in media (DMEM+10% FBS+1% L-Glutamine). A cell count was performed using the Cedex instrumentation, and the concentration of cells was adjusted using media to give 200K cells per mL (10K cells/50 μL).
(§2) Human GHSR BACMAM virus was added to the cell suspension at an appropriate % volume (calculated for individual batches of BACMAM virus as viral titres vary). The transduced cell suspension was dispensed into FLIPR 384-well clear bottom plates, 50 μL per well. Cell plates were incubated at 37° C. overnight.
Master compound plates were prepared in 100% DMSO. 3 mM was the top concentration (giving 10 μM final concentration) and they were serially diluted 1 in 4. 1 μL from the master plate was transferred to a daughter plate, to which was added 50 μL of compound dilution (Tyrodes {Elga water+145 mM NaCl+5 mM KCl+20 mM HEPES+10 mM glucose+1 mM MgCl2+1.5 mM CaCl2}. For the agonist assay, the compound buffer also contained 0.1% BSA. This plate was used for the assay. Ghrelin was always prepared in buffer containing 0.1% BSA.
Master compound plates were prepared in 100% DMSO. 3 mM was the top concentration (giving 10 μM final concentration) and they were serially diluted 1 in 4. 1 μL from the master plate was transferred to a daughter plate, to which was added 50 μL of compound dilution (HBSS {Elga water+137 mM NaCl+5 mM KCl+0.41 mMa KH2PO4(anhyd)+20 mM HEPES+5 mM glucose+0.81 mM MgSO4(anhyd)+1.3 mM CaCl2+4.16 mM NaHCO3}. For the agonist assay, the compound buffer also contained 0.1% BSA. This plate was used for the assay. Ghrelin was always prepared in buffer containing 0.1% BSA.
Media was aspirated from cell plates using a cell washer (leaving 10 μL of media). Cells were immediately loaded with loading buffer (Tyrodes buffer-(Elga water+145 mM NaCl+5 mM KCl+20 mM HEPES+10 mM glucose+1 mM MgCl2)+1.5 mM CaCl2+0.714 mg/mL Probenecid (predissolved in 1 M NaOH)+0.25 mM brilliant black+2 μM Fluo 4 dye, and incubated at 37.5° C., 5% CO2 for 90 min. The plates were placed in a FLuorimetric Imaging Plate Reader (FLIPR, Molecular Devices) where 10 μL of compound, prepared according to method A above, was added to the cells and fluorescence measurements were taken. Maximum changes in fluorescence were plotted as a percentage of the maximum response elicited by 300 nM hGhrelin and curves fitted using a 4-parameter logistic equation to generate pEC50 values. Intrinsic activity of the compounds was calculated by using the maximum asymptote of it's concentration response curve relative to the maximum asymptote of the hGhrelin concentration response curve.
Media was aspirated from cell plates using a cell washer (leaving 10 μL of media). Cells were immediately loaded with loading buffer (HBSS (Elga water+137 mM NaCl+5 mM KCl+0.41 mM KH2PO4(anhyd)+20 mM HEPES+5 mM glucose+0.81 mM MgSO4(anhyd))+1.3 mM CaCl2+4.16 mM NaHCO3+0.714 mg/mL Probenecid (predissolved in 1 M NaOH)+0.25 mM brilliant black+2 μM Fluo 4 dye, and incubated at 37.5° C., 5% CO2 for 90 min. The plates were placed in a FLuorimetric Imaging Plate Reader (FLIPR, Molecular Devices) where 10 μL of compound, prepared according to method B above, was added to the cells and fluorescence measurements were taken. Maximum changes in fluorescence were plotted as a percentage of the maximum response elicited by 300 nM hGhrelin and curves fitted using a 4-parameter logistic equation to generate pEC50 values. Intrinsic activity of the compounds was calculated by using the maximum asymptote of it's concentration response curve relative to the maximum asymptote of the hGhrelin concentration response curve.

[2] = target: T1, Human GHS-R (ghrelin receptor); experiment: GHSR Agonist BACMAM FLIPR Assay (Method Z); type: cell-based; conditions: U2OS cells, maximum asymptote relative to maximum response of hGhrelin at 100 nM
Protocol: as §1, §2
Master compound plates were prepared in 100% DMSO. 0.6 mM was the top concentration (giving 3 μM final concentration) and they were serially diluted 1 in 4. 1 μL from the master plate was transferred to a daughter plate, to which was added 50 μL of compound dilution (NaCl (145 mM) KCl (5 mM) CaCl2 (2 mM) MgCl2 (1 mM) HEPES (20 mM) D-(+)-Glucose (1 g/l), pluronic acid (0.05%), pH 7.3). This plate was used for the assay. Ghrelin was always prepared in compound dilution buffer containing 0.1% BSA.
Media was washed from cell plates, using a cell washer (leaving 20 μL of washing buffer (NaCl (145 mM)+KCl (5 mM)+CaCl2 (2 mM)+MgCl2 (1 mM)+HEPES (20 mM)+D-(+)-Glucose (1 g/l)+Probenecid (2.5 mM), pH 7.3). Cells were immediately loaded with loading buffer (washing buffer+pluronic acid (0.02%)+Fluo 4 dye (2 μM), and incubated at 37° C., for 60 min. After a second washing step (same as for the pre-loading, but leaving 30 μL of washing buffer), the plates were placed in a FLuorimetric Imaging Plate Reader (FLIPR, Molecular Devices) where 10 μL of compound, prepared according to method C above, was added to the cells and fluorescence measurements were taken. […] Percentage activation of the compounds was calculated by using the maximum asymptote of it's concentration response curve relative to the maximum response of the hGhrelin at 100 nM concentration.

| Compound | intrinsic activity (IA) [1] | percentage activation [2] |
| --- | --- | --- |
| CN1CCN(C(C(=O)NNc2cc(C(F)(F)F)cc(C(F)(F)F)c2)c2ccccc2Cl)CC1 (single isomer, unassigned; enantiomer 1) [Compound 9, N′-[3,5-bis(trifluoromethyl)phenyl]-2-(2-chlorophenyl)-2-(4-methyl-1-piperazinyl)acetohydrazide-enantiomer 1] | 0.4 |  |
| CN1CCN(C(C(=O)NNc2cc(C(F)(F)F)cc(C(F)(F)F)c2)c2cccc3c2OC(F)(F)O3)CC1 (racemic) [Compound 46, (±)-N′-[3,5-bis(trifluoromethyl)phenyl]-2-(2,2-difluoro-1,3-benzodioxol-4-yl)-2-(4-methyl-1-piperazinyl)acetohydrazide] | 0.4 |  |
| CN1CCN(C(C(=O)NNc2cc(C(F)(F)F)cc(C(F)(F)F)c2)c2cccc(OC(F)(F)F)c2)CC1 (racemic) [Compound 37, (±)-N′-[3,5-bis(trifluoromethyl)phenyl]-2-(4-methyl-1-piperazinyl)-2-{3-[(trifluoromethyl)oxy]phenyl}acetohydrazide] | 0.4 |  |
| Cc1ccc(C(C(=O)NNc2cc(C(F)(F)F)cc(C(F)(F)F)c2)N2CCN3CCC[C@@H]3C2)c(C)n1 (single isomer, unassigned; diastereoisomer 1) [Compound 80] | 0.4 |  |
| CN1CCN(C(C(=O)NNc2cc(C(F)(F)F)cc(C(F)(F)F)c2)c2ccc3c(c2)CCO3)CC1 (single isomer, unassigned; enantiomer 1) [Compound 20, N′-[3,5-bis(trifluoromethyl)phenyl]-2-(2,3-dihydro-1-benzofuran-5-yl)-2-(4-methyl-1-piperazinyl)acetohydrazide-enantiomer 1] | 0.4 |  |
| Cc1cccnc1C(C(=O)NNc1cc(C(F)(F)F)cc(C(F)(F)F)c1)N1CCN(C)CC1 (single isomer, unassigned; enantiomer 2) [Compound 56, N′-[3,5-bis(trifluoromethyl)phenyl]-2-(4-methyl-1-piperazinyl)-2-(3-methyl-2-pyridinyl)acetohydrazide-enantiomer 2] | 0.4 |  |
| CN1CCN(C(C(=O)NNc2cc(C(F)(F)F)cc(C(F)(F)F)c2)c2cncnc2)CC1 (single isomer, unassigned; enantiomer 1) [Compound 78, N′-[3,5-bis(trifluoromethyl)phenyl]-2-(4-methyl-1-piperazinyl)-2-(5-pyrimidinyl)acetohydrazide-enantiomer 1] | 0.4 |  |
| Cc1cccnc1C(C(=O)NNc1cc(C(F)(F)F)cc(C(F)(F)F)c1)N1CCN(C)CC1 (single isomer, unassigned; enantiomer 1) [Compound 55, N′-[3,5-bis(trifluoromethyl)phenyl]-2-(4-methyl-1-piperazinyl)-2-(3-methyl-2-pyridinyl)acetohydrazide-enantiomer 1] | 0.4 |  |
| CN1CCC(C(C(=O)NNc2cc(Cl)cc(Cl)c2)c2cccc3ccccc23)CC1 (single isomer, unassigned; enantiomer 1) [Compound 73, N′-(3,5-dichlorophenyl)-2-(1-methyl-4-piperidinyl)-2-(1-naphthalenyl)-acetohydrazide-enantiomer 1] | 0.4 |  |
| O=C(NNc1cc(C(F)(F)F)cc(C(F)(F)F)c1)C(c1ccccc1Cl)N1CCN2CCC[C@H]2C1 (single isomer, unassigned; diastereoisomer 2) [Compound 83] | 0.4 |  |
| CN1CCN(C(C(=O)NNc2cc(C(F)(F)F)cc(C(F)(F)F)c2)c2cccc(Cl)c2)CC1.O=CO (racemic) [Compound 45, (±)-formic acid-N′-[3,5-bis(trifluoromethyl)phenyl]-2-(3-chlorophenyl)-2-(4-methyl-1-piperazinyl)acetohydrazide] | 0.4 |  |

Now from value to molecule:

| intrinsic activity (IA) [1] | percentage activation [2] | Compound |
| --- | --- | --- |
|  | > 40% | Cc1ncccc1C(C(=O)NNc1cc(C(F)(F)F)cc(C(F)(F)F)c1)N1CCN2CCC[C@@H]2C1 (single isomer, unassigned; diastereoisomer 1) [Compound 94] |
|  | > 40% | O=C(NNc1cc(C(F)(F)F)cc(C(F)(F)F)c1)C(c1ccc2c(c1)OCCO2)N1CCN2CCC[C@@H]2C1 (single isomer, unassigned; diastereoisomer 1) [Compound 96] |
| 0.4 |  | CN1CCN(C(C)(C(=O)NNc2cc(C(F)(F)F)cc(C(F)(F)F)c2)c2ccccn2)CC1 (single isomer, unassigned) [Compound 130, N′-[3,5-bis(trifluoromethyl)phenyl]-2-(4-methyl-1-piperazinyl)-2-(2-pyridinyl)propanohydrazide] |
| 0.4 |  | O=C(NNc1cc(C(F)(F)F)cc(C(F)(F)F)c1)C(c1ccccc1Cl)N1CCN2CCC[C@@H]2C1 (single isomer, unassigned; diastereoisomer 2) [Compound 85] |
| 0.4 |  | O=C(NNc1cc(C(F)(F)F)cc(C(F)(F)F)c1)C(c1cccnc1)N1CCN2CCC[C@H]2C1 (single isomer, unassigned) [Compound 126] |
|  | > 40% | Cc1ccc(C(C(=O)NNc2cc(C(F)(F)F)cc(C(F)(F)F)c2)N2CCN3CCC[C@@H]3C2)cn1 (single isomer, unassigned; diastereoisomer 1) [Compound 92] |
